Results on 15 compounds are retold here after patent publication US20260008787A1, “FUSED RING KRAS INHIBITORS FOR TREATING DISEASE” (BLOSSOMHILL THERAPEUTICS, INC., priority 2022, published 2026).

The target in assay [1] is KRAS G12D (Homo sapiens, UniProt P01116, G12D). Description: biochemical.
The target of assay [2] is KRAS G12V (Homo sapiens, UniProt P01116, G12V). Description: biochemical.
In assay [3] the test system is AGS (G12D). Description: Cell proliferation assay (CellTiter-Glo, 72 hours), AGS. The class given is cell-based. The following applies: 384-well, CellTiter-Glo 2.0. As for the experimental part:
(§1) Two thousand KRAS mutant cells per well were seeded in 384-well white plate and then treated with indicated compounds for 72 hours at 37° C. and 5% CO2. Cell proliferation was measured using CellTiter-Glo 2.0 luciferase-based ATP detection assay (Promega, Madison, WI) following the manufacturer's protocol. IC50 values were determined using Prism software (GraphPad Software, San Diego, CA).
(In general: In ATP-based viability assays light output follows the ATP content of the culture.)

Assay [4] relates to SW620 (KRAS G12V). Description: Cell proliferation assay (CellTiter-Glo, 72 hours), SW620. In kind it is cell-based. The following applies: 384-well, CellTiter-Glo 2.0. The protocol: as §1
Assay [5] concerns GP2D (KRAS G12D). Description: Cell proliferation assay (CellTiter-Glo, 72 hours), GP2D. In kind it is cell-based. The following applies: 384-well, CellTiter-Glo 2.0. The protocol:
as §1

Sequence of KRAS G12V (P01116 1-188 isoform P01116-2 G12V): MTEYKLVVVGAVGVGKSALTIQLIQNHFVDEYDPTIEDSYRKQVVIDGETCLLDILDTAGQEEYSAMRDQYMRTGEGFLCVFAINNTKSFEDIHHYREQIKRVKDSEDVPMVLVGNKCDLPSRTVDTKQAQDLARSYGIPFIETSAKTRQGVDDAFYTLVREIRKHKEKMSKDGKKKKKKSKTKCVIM
Sequence of KRAS G12D (P01116 1-188 isoform P01116-2 G12D): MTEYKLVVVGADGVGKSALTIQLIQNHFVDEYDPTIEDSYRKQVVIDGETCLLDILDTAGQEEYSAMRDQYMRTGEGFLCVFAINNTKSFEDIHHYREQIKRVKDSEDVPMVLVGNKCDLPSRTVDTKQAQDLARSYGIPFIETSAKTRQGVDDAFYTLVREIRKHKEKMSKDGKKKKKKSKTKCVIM

The IC50 is the concentration that gives 50% inhibition. A low value points to higher potency. Consider `Fc1c(-c2c(Cl)ccc3[nH]nc(Cl)c23)nc2c3c(nc(OC[C@@]45CCCN4C[C@H](F)C5)nc13)N1CCCC[C@H]1CO2` (atropisomer, axis not shown) [Example 83, (7S)-12-(3,5-dichloro-1H-indazol-4-yl)-13-fluoro-16-[[(2R,8S)-2-fluoro-1,2,3,5,6,6-4hexahydropyrrolizin-8-yl]methoxy]-9-oxa-2,11,15,17-tetrazatetracyclo[8.7.1.02,7.014,18]octadeca-1 (17),10 (18),11,13,15-pentaene], for which the IC50 in assay [1] is 0.0604 µM; in assay [2] it was 0.0593 µM; in assay [3] (72 h), > 3 µM; in assay [4] (Homo sapiens, SW-620, 72 h), > 3 µM; in assay [5], 1.08 µM.

`Fc1c(-c2c(Cl)ccc3[nH]nc(Cl)c23)nc2c3c(nc(OC[C@@]45CCCN4C[C@H](F)C5)nc13)N1CCCC[C@H]1CO2` (atropisomer, axis not shown) [Example 84, (7S)-12-(3,5-dichloro-1H-indazol-4-yl)-13-fluoro-16-[[(2R,8S)-2-fluoro-1,2,3,5,6,7-hexahydropyrrolizin-8-yl]methoxy]-9-oxa-2,11,15,17-tetrazatetracyclo[8.7.1.02, 7.014,18]octadeca-1 (17),10 (18),11,13,15-pentaene]: the IC50 in assay [1] was 0.0545 µM; in assay [2] it was 0.048 µM; in assay [3], > 3 µM; in assay [4], > 3 µM; in assay [5], > 3 µM.

`Nc1nc2c(-c3nc4c5c(nc(OC[C@@]67CCCN6C[C@H](F)C7)nc5c3F)N3CCCC[C@H]3CO4)ccc(F)c2s1` [Example 40, 7-fluoro-4-[(8aS)-4-fluoro-2-{[(2R,7aS)-2-fluorotetrahydro-1H-pyrrolizin-7a(5H)-yl]methoxy}-8,8a,9,10,11,12-hexahydro-7-oxa-1,3,6,12a-tetraazabenzo[4,5]cyclohepta[1,2,3-de]naphthalen-5-yl]-1,3-benzothiazol-2-amine]: the IC50 in assay [1] is 0.0301 µM; in assay [2], 0.0282 µM; in assay [3] (72 h), > 3 µM; in assay [4] (Homo sapiens, SW-620, 72 h) it was > 3 µM; in assay [5] (GP2d, 72 h), > 3 µM.

As to `Cc1cc(N)nc(-c2nc3c4c(nc(OC[C@@]56CCCN5C[C@H](F)C6)nc4c2F)N2CCCC[C@H]2CO3)c1C(F)(F)F` [Example 43, 6-[(8aS)-4-fluoro-2-{[(2R,7aS)-2-fluorotetrahydro-1H-pyrrolizin-7a(5H)-yl]methoxy}-8,8a,9,10,11,12-hexahydro-7-oxa-1,3,6,12a-tetraazabenzo[4,5]cyclohepta[1,2,3-de]naphthalen-5-yl]-4-methyl-5-(trifluoromethyl)pyridin-2-amine], the IC50 is 0.0163 µM in assay [1]; 0.0127 µM in assay [2]; > 3 µM in assay [3] (72 h); > 3 µM in assay [4] (Homo sapiens, SW-620, 72 h); 2.12 µM in assay [5] (GP2d, 72 h).

`C#Cc1c(F)ccc2cc(O)cc(-c3cc4c5c(nc(OC[C@@]67CCCN6C[C@H](F)C7)nc5c3F)N3CCCC[C@H]3CO4)c12` [Example 45, 5-ethynyl-6-fluoro-4-[(8aS)-4-fluoro-2-{[(2R,7aS)-2-fluorotetrahydro-1H-pyrrolizin-7a(5H)-yl]methoxy}-8,8a,9,10,11,12-hexahydropyrido[2′,1′:3,4][1,4]oxazepino[5,6,7-de]quinazolin-5-yl]naphthalen-2-ol]: the IC50 was 0.00328 µM in assay [1]; 0.00233 µM in assay [2]; 0.621 µM in assay [3] (72 h); 0.321 µM in assay [4] (Homo sapiens, SW-620, 72 h); 0.361 µM in assay [5] (GP2d, 72 h).

Consider `C#Cc1c(F)ccc2cc(O)cc(-c3nc4c5c(nc(OC[C@@]67CCCN6C[C@H](F)C7)nc5c3F)N[C@@H](C)CO4)c12` [Example 46, 5-ethynyl-6-fluoro-4-[(9S)-4-fluoro-2-{[(2R,7aS)-2-fluorotetrahydro-1H-pyrrolizin-7a(5H)-yl]methoxy}-9-methyl-9,10-dihydro-8H-7-oxa-1,3,6,10-tetraazacyclohepta[1,2,3-de]naphthalen-5-yl]naphthalen-2-ol], for which the IC50 worked out at 0.0021 µM in assay [1]; 0.00171 µM in assay [2]; 0.193 µM in assay [3] (72 h); 0.414 µM in assay [4] (Homo sapiens, SW-620, 72 h); 0.0748 µM in assay [5] (GP2d, 72 h).

On to `C#Cc1c(F)ccc2cc(O)cc(-c3nc4c5c(nc(OC[C@@]67CCCN6C[C@H](F)C7)nc5c3F)N(C)[C@@H](C)CO4)c12` [Example 50, 5-ethynyl-6-fluoro-4-[(9S)-4-fluoro-2-{[(2R,7aS)-2-fluorotetrahydro-1H-pyrrolizin-7a(5H)-yl]methoxy}-9,10-dimethyl-9,10-dihydro-8H-7-oxa-1,3,6,10-tetraazacyclohepta[1,2,3-de]naphthalen-5-yl]naphthalen-2-ol], for which the IC50 in assay [1] was 0.00171 µM; in assay [2] it was 0.00199 µM; in assay [3] (72 h), 0.0284 µM; in assay [4] (Homo sapiens, SW-620, 72 h), 0.0257 µM; in assay [5] (GP2d, 72 h), 0.00894 µM.

For the compound `C#Cc1c(F)ccc2cc(O)cc(-c3nc4c5c(nc(OC[C@@]67CCCN6C/C(=C\F)C7)nc5c3F)N3CCCC[C@H]3CO4)c12` [Example 52, 5-ethynyl-6-fluoro-4-[(8aS)-4-fluoro-2-{[(2Z,7aS)-2-(fluoromethylidene)tetrahydro-1H-pyrrolizin-7a(5H)-yl]methoxy}-8,8a,9,10,11,12-hexahydro-7-oxa-1,3,6,12a-tetraazabenzo[4,5]cyclohepta[1,2,3-de]naphthalen-5-yl]naphthalen-2-ol], the IC50 in assay [1] came out at 0.00226 µM; in assay [2] it was 0.00222 µM; in assay [3] (72 h), 0.0077 µM; in assay [4] (Homo sapiens, SW-620, 72 h), 0.0092 µM; in assay [5] (GP2d, 72 h), 0.00175 µM.

`C#Cc1c(F)ccc2cc(O)cc(-c3nc4c5c(nc(OC[C@@]67CCCN6C[C@H](F)C7)nc5c3F)N3[C@@H](COC[C@@H]3C)CO4)c12` [Example 59, 5-ethynyl-6-fluoro-4-[(8aS,12S)-4-fluoro-2-{[(2R,7aS)-2-fluorotetrahydro-1H-pyrrolizin-7a(5H)-yl]methoxy}-12-methyl-8a,9,11,12-tetrahydro-8H-7,10-dioxa-1,3,6,12a-tetraazabenzo[4,5]cyclohepta[1,2,3-de]naphthalen-5-yl]naphthalen-2-ol]: the IC50 stood at 0.00266 µM in assay [1]; 0.00308 µM in assay [2]; 0.0706 µM in assay [3] (72 h); 0.0772 µM in assay [4] (Homo sapiens, SW-620, 72 h); 0.0124 µM in assay [5] (GP2d, 72 h).

Regarding `C#Cc1c(F)ccc2cc(O)cc(-c3nc4c5c(nc(OC[C@@]67CCCN6C[C@H](F)C7)nc5c3F)N(Cc3ccccc3)CCC4)c12` [Example 112, 4-[13-benzyl-6-fluoro-3-[[(2R,8S)-2-fluoro-1,2,3,5,6,7-hexahydropyrrolizin-8-yl]methoxy]-2,4,8,13-tetrazatricyclo [7.4.1.05,14]tetradeca-1,3,5,7,9 (14)-pentaen-7-yl]-5-ethynyl-6-fluoro-naphthalen-2-ol], the IC50 in assay [1] was 0.321 µM; in assay [2], 0.0401 µM; in assay [3] (72 h), > 3 µM; in assay [5] (GP2d, 72 h) it was > 3 µM.

As for `CCc1c(F)ccc2cc(O)cc(-c3nc4c5c(nc(OC[C@@]67CCCN6C[C@H](F)C7)nc5c3F)N3CCC[C@](C)(O)[C@@H]3CO4)c12` [Example 114], the IC50 in assay [1] is 0.929 µM; in assay [2] it was 1.2 µM; in assay [3] (72 h), > 3 µM; in assay [5] (GP2d, 72 h), > 3 µM.

As to `CC[C@H]1COc2nc(-c3cc(O)cc4ccc(F)c(F)c34)c(F)c3nc(OC[C@@]45CCCN4C[C@H](F)C5)nc(c23)N1C` [Example 115, 4-[(9S)-9-ethyl-4-fluoro-2-{[(2R,7aS)-2-fluorotetrahydro-1H-pyrrolizin-7a(5H)-yl]methoxy}-10-methyl-9,10-dihydro-8H-7-oxa-1,3,6,10-tetraazacyclohepta[1,2,3-de]naphthalen-5-yl]-5,6-difluoronaphthalen-2-ol], the IC50 in assay [1] was 0.00261 µM; in assay [2], 0.0024 µM; in assay [3] (72 h) it was 0.352 µM; in assay [5] (GP2d, 72 h), 0.106 µM.

In the case of `CC[C@H]1COc2nc(-c3cccc4sc(N)c(C#N)c34)c(F)c3nc(OC[C@@]45CCCN4C[C@H](F)C5)nc(c23)N1C` [Example 116, 2-amino-4-[(9S)-9-ethyl-4-fluoro-2-{[(2R,7aS)-2-fluorotetrahydro-1H-pyrrolizin-7a(5H)-yl]methoxy}-10-methyl-9,10-dihydro-8H-7-oxa-1,3,6,10-tetraazacyclohepta[1,2,3-de]naphthalen-5-yl]-1-benzothiophene-3-carbonitrile], the IC50 in assay [1] was 0.0142 µM; in assay [2], 0.00641 µM; in assay [3] (72 h), > 3 µM; in assay [5] (GP2d, 72 h), 0.76 µM.

Turning to `C#Cc1c(F)ccc2cc(O)cc(-c3nc4c5c(nc(OC[C@@]67CCCN6C[C@H](F)C7)nc5c3F)N(CC(F)(F)F)[C@@H](C)CO4)c12` [Example 133, 5-ethynyl-6-fluoro-4-((S)-4-fluoro-2-(((2R,7aS)-2-fluorotetrahydro-1H-pyrrolizin-7a(5H)-yl)methoxy)-9-methyl-10-(2,2,2-trifluoroethyl)-9,10-dihydro-8H-7-oxa-1,3,6,10-tetraazacyclohepta[de]naphthalen-5-yl)naphthalen-2-ol], the IC50 in assay [3] (72 h) was 0.0499 µM; in assay [4] (Homo sapiens, SW-620, 72 h), 0.0258 µM; in assay [5] (GP2d, 72 h) it was 0.0213 µM.

As to `CCc1c(F)ccc2cc(O)cc(-c3nc4c5c(nc(OC[C@@]67CCCN6C[C@H](F)C7)nc5c3F)N3CCC[C@@](C)(O)[C@H]3CO4)c12` [compound 3, (8aR,9R)-5-(8-ethyl-7-fluoro-3-hydroxynaphthalen-1-yl)-4-fluoro-2-{[(2R,7aS)-2-fluorotetrahydro-1H-pyrrolizin-7a(5H)-yl]methoxy}-9-methyl-8,8a,9,10,11,12-hexahydro-7-oxa-1,3,6,12a-tetraazabenzo[4,5]cyclohepta[1,2,3-de]naphthalen-9-ol], the IC50 stood at 0.00166 µM in assay [1]; 0.00185 µM in assay [2]; 0.0575 µM in assay [3] (72 h); 0.0155 µM in assay [5] (GP2d, 72 h).
